# Experimental data published in article PMC9865193, “Improvement of the Chemical Reactivity of Michael Acceptor of Ethacrynic Acid Correlates with Antiproliferative Activities” (Molecules, 2023).
# Key:
# U87-MG cells = test: MTS cell growth inhibition assay, U87-MG; type: cell-based, human; settings: for IC50: Homo sapiens, U-87 MG, U87-MG, 72 h of exposure, read-out: IC50 antiproliferative activity U87-MG; for Selectivity index (SI) MRC5/U87-MG: ratio of IC50 MRC5/IC50 U87-MG
# Method: (§1) Moreover, in order to evaluate the safety index, their effect on the proliferation of human lung fibroblasts (MCR5) as a normal cell line was also studied.
# (§2) All cancer cell lines (HCT116, A549, MCF7, PC3, U87-MG, SKOV3, and MRC5) were obtained from the European Collection of Cell Culture (ECACC, Salisbury, UK) or from the American Type Culture Collection (Rockville, MD, USA) and were cultured according to the supplier’s instructions. […] U87-MG glioblastoma and human MRC-5 cells were grown in Gibco medium DMEM supplemented with 10% fetal calf serum (FCS) and 1% glutamine. Cells were maintained at 37 °C in a humidified atmosphere containing 5% CO2. Cell growth inhibition was determined by an MTS assay according to the manufacturer’s instructions (Promega, Madison, WI, USA). Briefly, the cells were seeded in 96-well plates (2.5 × 10^3 cells/well) containing 100 μL of growth medium. After 24 h of culture, the cells were treated with the tested compounds at 10 different final concentrations. After incubation for 72 h, 20 µL of Cell Titer 96®AQueous. One Solution Reagent was added for 2 h before recording absorbance at 490nm with a spectrophotometric plate reader.
# A549 cells = test: MTS cell growth inhibition assay, A549; type: cell-based, human; settings: for IC50: Homo sapiens, A549, 72 h of exposure, read-out: IC50 antiproliferative activity A549; for Selectivity index (SI) MRC5/A549: ratio of IC50 MRC5/IC50 A549
# Method: as §1, §2
# HL60 cells = test: MTS cell growth inhibition assay, HL60; type: cell-based, human; settings: for IC50: Homo sapiens, HL-60, read-out: IC50 antiproliferative activity against HL60; for Selectivity index (SI) MRC5/HL60: ratio of IC50 MRC5/IC50 HL60
# Text: Based on a multiple target assay, all the prepared compounds (6–10) were first evaluated against HL60 leukemia cells to assess their in vitro antiproliferative activities. As mentioned in the Table 1, the obtained results were expressed as half-maximal inhibitory concentration (IC50) values with the average of at least three independent experiments and are compared to EA.
# (§3) All cancer cell lines (HCT116, A549, MCF7, PC3, U87-MG, SKOV3, and MRC5) were obtained from the European Collection of Cell Culture (ECACC, Salisbury, UK) or from the American Type Culture Collection (Rockville, MD, USA) and were cultured according to the supplier’s instructions. Human HCT-116 colorectal carcinoma, MCF7 breast adenocarcinoma, PC3 prostate adenocarcinoma, A549 lung carcinoma, and SK-OV-3 ovary carcinoma were grown in Gibco McCoy’s 5A supplemented with 10% fetal calf serum (FCS) and 1% glutamine. HL60 myelogenous leukemia cells were grown in RPMI 1640 supplemented with 10% fetal calf serum (FCS) and 1% glutamine. U87-MG glioblastoma and human MRC-5 cells were grown in Gibco medium DMEM supplemented with 10% fetal calf serum (FCS) and 1% glutamine. Cells were maintained at 37 °C in a humidified atmosphere containing 5% CO2. Cell growth inhibition was determined by an MTS assay according to the manufacturer’s instructions (Promega, Madison, WI, USA). Briefly, the cells were seeded in 96-well plates (2.5 × 10^3 cells/well) containing 100 μL of growth medium. After 24 h of culture, the cells were treated with the tested compounds at 10 different final concentrations. After incubation for 72 h, 20 µL of Cell Titer 96®AQueous. One Solution Reagent was added for 2 h before recording absorbance at 490nm with a spectrophotometric plate reader. The concentration–response curves were generated with Graph Prism software and the 50% inhibition concentration values (IC50) were calculated from polynomial curves (four or five-parameter logistic equations).
# PC3 cells = test: MTS cell growth inhibition assay, PC3; type: cell-based, human; settings: for IC50: Homo sapiens, PC-3, PC3, 72 h of exposure, read-out: IC50 antiproliferative activity PC3; for Selectivity index (SI) MRC5/PC3: ratio of IC50 MRC5/IC50 PC3
# Method: as §1, §3
# MCF7 cells = test: MTS cell growth inhibition assay, MCF7; type: cell-based, human; settings: for IC50: Homo sapiens, MCF7, 72 h of exposure, read-out: IC50 antiproliferative activity MCF7; for Selectivity index (SI) MRC5/MCF7: ratio of IC50 MRC5/IC50 MCF7
# Method: as §1, §2
# MRC5 cells = test: MTS cell growth inhibition assay, normal cell line MRC5; type: cell-based; settings: MRC5 normal human lung fibroblasts, 72 h of exposure; read-out: IC50 antiproliferative activity MRC5
# Method: as §1, §3
# HCT116 cells = test: MTS cell growth inhibition assay, HCT116; type: cell-based, human; settings: for IC50: Homo sapiens, HCT-116, HCT116, 72 h of exposure, read-out: IC50 antiproliferative activity HCT116; for Selectivity index (SI) MRC5/HCT116: ratio of IC50 MRC5/IC50 HCT116
# Method: as §1, §2
# SKOV3 cells = test: MTS cell growth inhibition assay, SKOV3; type: cell-based, human; settings: for IC50: Homo sapiens, SK-OV-3, SKOV3, 72 h of exposure, read-out: IC50 antiproliferative activity SKOV3; for Selectivity index (SI) MRC5/SKOV3: ratio of IC50 MRC5/IC50 SKOV3
# Method: as §1, §3
SMILES,IC50 (U87-MG cells) [nM],IC50 (A549 cells) [nM],"IC50 (HL60 cells; HL60 leukemia cells, 72 h, MTS) [nM]",IC50 (PC3 cells) [nM],IC50 (MCF7 cells) [nM],IC50 (HCT116 cells) [nM],IC50 (SKOV3 cells) [nM],"IC50 antiproliferative activity against HL60 (HL60 cells; HL60 leukemia cells, 72 h, MTS)",Selectivity index (SI) MRC5/U87-MG (U87-MG cells),Selectivity index (SI) MRC5/A549 (A549 cells),Selectivity index (SI) MRC5/HL60 (HL60 cells),Selectivity index (SI) MRC5/PC3 (PC3 cells),Selectivity index (SI) MRC5/MCF7 (MCF7 cells),IC50 (MRC5 cells) [nM],Selectivity index (SI) MRC5/HCT116 (HCT116 cells),Selectivity index (SI) MRC5/SKOV3 (SKOV3 cells)
C#CCOc1ccc(C(=O)C(=C)CC)c(Cl)c1Cl [Compound 10],,,580 ± 40,,,,,,,,,,,,,
"C=C(CC)C(=O)c1ccc(OCC(=O)NCCCC)c(Cl)c1Cl [Compound 9, N-Butyl-2-(2,3-dichloro-4-(2-methylenebutanoyl)phenoxy)acetamide]",,,,,,,,inactive,,,,,,,,
"C=C(CC)C(=O)c1ccc(OCC(=O)O)cc1O [Compound 6, 2-(3-Hydroxy-4-(2-methylenebutanoyl)phenoxy)acetic acid]",,,> 10000,,,,,,,,,,,,,
"C#CCOc1ccc(C(=O)C(=C)CC)c(O)c1 [Compound 8, 1-(2-Hydroxy-4-(prop-2-yn-1-yloxy)phenyl)-2-methylenebutan-1-one]",369 ± 50.1,41.2 ± 1.88,15 ± 6,68.7 ± 3.7,61.5 ± 0.9,1260 ± 80,138 ± 53.8,,0.94,8.49,23.33,5.09,5.69,350 ± 40,0.27,2.53

# Second part, led by results:
IC50 (U87-MG cells) [nM],IC50 (A549 cells) [nM],"IC50 (HL60 cells; HL60 leukemia cells, 72 h, MTS) [nM]",IC50 (PC3 cells) [nM],IC50 (MCF7 cells) [nM],IC50 (HCT116 cells) [nM],IC50 (SKOV3 cells) [nM],"IC50 antiproliferative activity against HL60 (HL60 cells; HL60 leukemia cells, 72 h, MTS)",SMILES,Selectivity index (SI) MRC5/U87-MG (U87-MG cells),Selectivity index (SI) MRC5/A549 (A549 cells),Selectivity index (SI) MRC5/HL60 (HL60 cells),Selectivity index (SI) MRC5/PC3 (PC3 cells),Selectivity index (SI) MRC5/MCF7 (MCF7 cells),IC50 (MRC5 cells) [nM],Selectivity index (SI) MRC5/HCT116 (HCT116 cells),Selectivity index (SI) MRC5/SKOV3 (SKOV3 cells)
1610 ± 355,285 ± 67.8,1700 ± 520,485 ± 20.9,528 ± 16.9,920 ± 20,1510 ± 363,,"C=C(CC)C(=O)c1ccc(OCC(=O)NCCCC)cc1O [Compound 7, N-Butyl-2-(3-hydroxy-4-(2-methylenebutanoyl)phenoxy)acetamide]",0.52,2.98,0.50,1.75,1.60,850 ± 110,0.93,0.56
99.6 ± 2.34,56.6 ± 0.84,,2.09 ± 0.03,120 ± 9,90 ± 3,,,"COc1cccc2c1C(=O)c1c(O)c3c(c(O)c1C2=O)C[C@@](O)(C(=O)CO)C[C@@H]3O[C@H]1C[C@H](N)[C@H](O)[C@H](C)O1 [Doxorubicin, doxorubicin, reference compound]",,,,,,39.9 ± 1.22,,
